Results published in patent US4624950A, “Method for treating atherosclerosis hyperlipidema, lipid deposition on arterial walls, or raising the ratio of high density lipoprotein cholesterol to total cholesterol in serum” (Nissan Chemical Industries Ltd., priority 1983, dated 1986).
Where two headings read alike, the source gives them in different places.

Columns and labels:
[1] = system: emulsion-induced hyperlipidemic rats; assay: Antihyperlipidemic activity in emulsion-induced hyperlipidemic rats (Test 1); type: in vivo, rat (male S.D.); conditions: 300 mg/kg/day p.o., 3 days
Experimental: The daily dose of the compound of the formula I is from 0.01 to 3.0 g, preferably from 0.1 to 1.5 g, for an adult. It is administered from once to three times per day. The dose may of course be varied depending upon the age, the weight or the condition of illness of the patient. Now, the usefulness of the compound of the formula I as an antiatherosclerotic agent will be shown by tests. In the following tests, the fractionation of lipoproteins was conducted by a dextran sulfate-MgCl2 precipitation method.
(§1) Cholesterol in serum was measured by means of a cholesterol measuring kit (Cholesterol C-Test Wako, manufactured by Wako Junyaku Co., Ltd.), and cholesterol in HDL was measured by means of NC Hi-Set, manufactured by Nippon Chemiphar Co., Ltd. The quantitative analysis of triglyceride was conducted by means of a triglyceride measuring kit (Triglyceride C-II-Test Wako, manufactured by Wako Junyaku Co., Ltd.).
(§2) Further, the change rate in the following Tables, was calculated by the following equation.
(§3) Change rate(%)=(A-B/A)×100
(§4) where A is the amount of serum lipids (mg/dl) of the control group, and B is the amount of serum lipids (mg/dl) of the group to which the therapeutic agent was administered.
The antihyperlipidemic activity in emulsion-induced hyperlipidemic rats
Male S.D. rats weighing 80-90 g (4 weeks old) were used. They were divided into groups of 5 to 6 rats each. The test compounds suspended in 0.5% CMC-Na(carboxymethyl cellulose sodium salt) were given to the rats in a daily dose of 4 ml/kg via stomach tube every 10:00 a.m. After 30 min., lipids emulsion having the following composition was orally given to the rats in an amount of 2.5 ml per rat. During the experimental period of 3 days, the rats were fed on a standard commercial diet and water ad libitum. […] The total cholesterol and triglyceride, and HDL cholesterol were measured.

[2] = system: Triton-induced hyperlipidemic rats; assay: Antihyperlipidemic activity in Triton-induced hyperlipidemic rats, method B (43 hours) (Test 2); type: in vivo, rat (male S.D.)
Experimental: Cholesterol in serum was measured by means of a cholesterol measuring kit (Cholesterol C-Test Wako, manufactured by Wako Junyaku Co., Ltd.), and cholesterol in HDL was measured by means of NC Hi-Set, manufactured by Nippon Chemiphar Co., Ltd. The quantitative analysis of triglyceride was conducted by means of a triglyceride measuring kit (Triglyceride C-II-Test Wako, manufactured by Wako Junyaku Co., Ltd.). Further, the change rate in the following Tables, was calculated by the following equation. Change rate(%)=(A-B/A)×100 where A is the amount of serum lipids (mg/dl) of the control group, and B is the amount of serum lipids (mg/dl) of the group to which the therapeutic agent was administered. The antihyperlipidemic activity in Triton-induced hyperlipidemic rats Male S.D. rats weighing 230-250 g (7 weeks old) were divided into groups of 5 rats each and injected with a physiological saline solution of Triton Wr-1339 in a dose of 250 mg/kg (5 ml/kg) i.v. through the tail vein. […] The test compounds suspended in 0.5% CMC-Na were given to the rats in an amount of 2 ml/kg via stomach tube 1 hour before and 5 hours after (in the case of method A) or 1 hour before and 23 hours after (in the case of method B) the injection of Triton solution. Control rats received the same volume of the vehicle. The animals were fasted during the experimental period. The total cholesterol and triglyceride in the serum were measured.

[3] = system: normal rats; assay: Activities against serum lipid, degree of hepatomegaly and GOT/GPT in normal rats (Test 5); type: in vivo, rat (male S.D.); conditions: 300 mg/kg/day, seven days
Experimental: It is administered from once to three times per day. The dose may of course be varied depending upon the age, the weight or the condition of illness of the patient. […] In the following tests, the fractionation of lipoproteins was conducted by a dextran sulfate-MgCl2 precipitation method.
as §1, §2, §3, §4
(§5) The activities against serum lipid, the degree of hepatomegaly and the hepatic drug metabolizing systems of normal rats
(§6) Male S.D. rats (6 weeks old) were divided into groups of 5 rats each. The test compounds suspended in 5% gum arabic were given to the rats once a day for seven days in a daily dose of 300 mg/kg. Then, the rats were fasted for one day, blood samples were taken, and the total cholesterol, triglyceride, HDL-cholesterol in the serum were quantitatively analyzed. Further, the liver weight was measured, and the degree of hepatomegaly was determined by comparing the weight ratio per 100 g of the body weight with that of the control group. Furthermore, GOT and GPT values were measured, and the activities of cytochrome P-450 and glutathione related enzymes were also measured. These values were compared with those of the control groups to investigate any abnormality.

[4] = system: cytochrome P-450; assay: Effect on cytochrome P-450 / hepatic drug metabolizing systems of normal rats (Test 5); type: in vivo, rat (male S.D.); conditions: 300 mg/kg/day, seven days
Experimental: as §5, §6

[5] = system: Escherichia coli (WP2UVrA); conditions: up to 5000 μg/Plate, absence or presence of S-9 mix of rat liver
Experimental: The mutagenicity was tested by using Escherichia coli (WP2UVrA) and Salmonella (TA98, TA100, TA1535 and TA1538) in the absence or presence of a drug metabolizing enzymes S-9 mix of rat liver.

[6] = Acute toxicity test (Test 7); conditions: mouse, in vivo, mortality after seven days, read-out: Acute toxicity: dose up to which no toxicity was shown
Experimental: The test compounds suspended in 0.5% CMC-Na were administered p.o. or injected i.p. to male ddY mice. The acute toxicity was dertermined based on the mortality after seven days.

## CN1C(=S)SC(c2ccccc2)N(C)C1c1ccccc1 (centres unmarked) [Compound of the formula I, 3,5-dimethyl-4,6-diphenyl-tetrahydro-2H-1,3,5-thiadiazine-2-thione]
[1]
  Serum lipid, HDL-Chol: 22.1 mg/dL
  Serum lipid, TG: 97.4 mg/dL
  Serum lipid, Total Chol: 145 mg/dL
[1]; vs control
  Change rate, HDL-Chol: +80.6%
  Change rate, TG: -36%
  Change rate, Total Chol: -45.0%
[2]; 150 mg/kg p.o.
  Change rate after 43 hours, Chol: -43.5%
  Change rate after 43 hours, TG: -65.7%
[2]; method B
  Lipid reducing activity (in words): distinc lipid reducing activity
[3]
  Hepatic insufficiency from GOT and GPT values (in words): No hepatic insufficiency was observed
  Hepatomegaly (in words): no substantial hepatomegaly
  LDL-cholesterol reduction (in words): ramarkably reduces LDL-cholesterol
  Serum lipid, HDL-Chol: 29.2 mg/dL
  Serum lipid, TG: 37.5 mg/dL
  Serum lipid, Total-Chol: 39.2 mg/dL
[3]; vs control
  Change rate, HDL-Chol: -1.0%
  Change rate, TG: -21.0%
  Change rate, Total-Chol: -16.2%
  Degree of hepatomegaly: +7.0%
[4]
  Abnormalities in activity against cytochrome P-450 or other liver microsome drug metabolizing systems (in words): no abnormalities were observed
[5]
  Mutagenicity: did not show any mutagenicity
[6]; ip, abdominal (i.p.) administration
  NOAEL at 168 h: ≥ 4000 mg/kg
[6]; oral administration
  NOAEL at 168 h: ≥ 8000 mg/kg
